Structures can show the parent of a compound that is named as a salt. Where two headings read alike, the source gives them in different places.
Assays:
[1] = tested on: K562 cell line; experiment: MTT assay: cytotoxicity against the K562 cell line; assay type: cell-based; details: Homo sapiens, K562 cells, 72 h, growth inhibition
Protocol: Assessment of Cell Viability via MTT Assay: Cytotoxicity of compounds against the K562 cell line was assessed using the [3-(4,5-dimethylthiazol-2-yl)-2,5-diphenyl tetrazolium bromide] (MTT) assay. Fifteen thousand tumor cells were seeded into wells of flat-bottomed 96-well plates. An amount of 2 μL of a dilution series of each compound dissolved in DMSO was added to 198 μL of appropriate growth medium at three replicates per concentration and the plates were incubated in a 5% CO2 incubator at 37° C. After 72 h, the number of metabolically active cells was determined by MTT assay. Absorbance of each well was measured at 550 nm on a Tecan Sunrise reader. Dose-response curves for growth inhibition were generated as a percentage of untreated control. IC50 was determined by nonlinear regression (Prism, Graph Pad Software, Inc.).

[2] = tested on: Endothelial cells (HUVEC); experiment: Neovessels formation inhibition (capillary tube formation on Matrigel); assay type: cell-based; details: Homo sapiens
Protocol: The capability of compounds to inhibit the formation of capillaries was evaluated in vitro. Twenty thousand Endothelial cells (HUVEC) were placed on a Matrigel matrix and allowed to form capillary tubes in the presence or absence of the compounds overnight. The cells were stained with calcein AM, and the effect of the compounds on capillary tube formation was assessed using an inverted fluorescent microscope (Nikon). The reference compound used in this assay AVE-8063 is 3-amino-deoxycombretastatin A-4.

[3] = tested on: HUVEC; experiment: Pre-established vessels disruption (capillary tubes on Matrigel); assay type: cell-based; details: Homo sapiens, HUVEC tubes formed 5 hours, then compounds overnight
Protocol: To explore the effect of the compounds on pre-established vasculature, twenty thousand cells (HUVEC) were seeded and incubated over Matrigel for 5 hours to allow the capillary tubes to form. Then, compounds were added and incubated overnight. The disappearance of existing vasculature was monitored with fluorescent microscopy.

[4] = target: T1, purified tubulin (Sus scrofa, UniProt P02550+P02554); experiment: Tubulin polymerisation assay (CytoDYNAMIX Screen kit, absorbance at 340 nm); assay type: biochemical; details: for inhibition at 5 µM: 5 μM compound, 4 mg/ml tubulin, read-out: % Inhibition of tubulin polymerization at 5 μM; for IC50: tubulin polymerization
T1 construct: purchased Cytoskeleton #BK006P
Protocol: The polymerization of purified tubulin was monitored spectrophotometrically by the change in absorbance at 340 nm using the CytoDYNAMIX Screen kit (#BK006P, Cytoskeleton) according to the instructions of the manufacturer. […] The absorbance was measured at 1 minute intervals for 60 minutes. The test compound was added to a 4 mg/ml tubulin solution containing 10% glycerol and 1 mM GTP in Buffer 1 (Buffer 1: 80 mM PIPES; 2 mM MgCl2; 0.5 mM EGTA, pH 6.9). Increased absorbance indicates increase in microtubule formation from tubulin heterodimers.

[5] = read-out: Pre-established Vessels Disruption Number of Branch Junctions IC50
[6] = read-out: Pre-established Vessels Disruption Total Tubule Length IC50
[7] = HUVEC on Matrigel, compounds overnight, read-out: Neovessels Formation Inhibition Number of Branch Junctions IC50
[8] = HUVEC on Matrigel, compounds overnight, read-out: Neovessels Formation Inhibition Total Tubule Length IC50

T1 sequence (P02554 whole entry): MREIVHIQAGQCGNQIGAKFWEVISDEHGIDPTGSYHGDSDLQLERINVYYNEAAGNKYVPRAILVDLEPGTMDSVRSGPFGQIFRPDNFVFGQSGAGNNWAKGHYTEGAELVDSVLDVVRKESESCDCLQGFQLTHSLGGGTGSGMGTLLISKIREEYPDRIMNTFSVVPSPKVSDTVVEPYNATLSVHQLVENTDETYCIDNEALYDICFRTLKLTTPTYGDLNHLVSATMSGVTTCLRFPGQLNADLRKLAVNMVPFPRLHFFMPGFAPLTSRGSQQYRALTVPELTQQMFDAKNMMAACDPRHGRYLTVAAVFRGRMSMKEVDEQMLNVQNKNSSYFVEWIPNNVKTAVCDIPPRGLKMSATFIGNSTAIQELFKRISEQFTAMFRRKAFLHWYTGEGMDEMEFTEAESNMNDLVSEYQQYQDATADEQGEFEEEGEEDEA
T1 sequence (P02550 whole entry): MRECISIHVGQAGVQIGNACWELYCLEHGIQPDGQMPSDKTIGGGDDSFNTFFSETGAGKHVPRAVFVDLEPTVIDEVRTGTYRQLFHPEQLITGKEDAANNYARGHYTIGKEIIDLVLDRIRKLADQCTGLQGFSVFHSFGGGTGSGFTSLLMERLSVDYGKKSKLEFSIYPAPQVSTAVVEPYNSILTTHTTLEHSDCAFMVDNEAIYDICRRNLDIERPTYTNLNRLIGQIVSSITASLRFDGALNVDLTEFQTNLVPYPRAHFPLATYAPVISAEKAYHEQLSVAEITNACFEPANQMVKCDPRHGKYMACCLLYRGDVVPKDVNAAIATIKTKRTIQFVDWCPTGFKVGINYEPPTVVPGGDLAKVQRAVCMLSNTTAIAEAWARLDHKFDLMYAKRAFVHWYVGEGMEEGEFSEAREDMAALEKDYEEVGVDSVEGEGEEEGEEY

Structure (SMILES)	IC50 [1] [nM]	also measured
COc1ccc(N(C)c2nc(C)nc3ccccc23)cc1 [Azixa, reference compound]	2.15	IC50 ([2]; HUVEC, read-out: Neovessels Formation Inhibition Number of Branch Junctions IC50 (nM)): 1.38 nM; IC50 ([2]; HUVEC, read-out: Neovessels Formation Inhibition Total Tubule Length IC50 (nM)): 2.16 nM; IC50 [3, 5]: 3.75 nM; IC50 [3, 6]: 6.01 nM
COc1ccc(/C=C\c2cc(OC)c(OC)c(OC)c2)cc1O [Combretastatin, reference compound]	2.07	inhibition at 5 µM [4]: 68.9%
CCOc1ccc2c(Cc3cc(OC)c(OC)c(OC)c3)cncc2c1NS(N)(=O)=O [Compound 8, 7-Ethoxy-4-(3,4,5-trimethoxy-benzyl)isoquinolin-8-yl]-sulfamide hydrochloride]	53.4	IC50 [2, 7]: 100 nM; IC50 [2, 8]: 138 nM
CCOc1cc(Cc2cncc3c(O)c(OCC)ccc23)cc(OC)c1OC [Compound 15, 4-(3-Ethoxy-4,5-dimethoxybenzyl)-7-ethoxyisoquinolin-8-ol hydrochloride]	105	inhibition at 5 µM [4]: 69%; IC50 [4]: 970 nM
COc1ccc2c(C(=O)c3cc(OC)c(OC)c(OC)c3)cncc2c1 [Compound 28, (7-Methoxyisoquinolin-4-yl)(3,4,5-trimethoxyphenyl)methanone hydrochloride]	42.1	inhibition at 5 µM [4]: 44.5%
CCOc1ccc2c(Cc3cc(OC)c(OCC(F)(F)F)c(OC)c3)cncc2c1O [Compound 30, 4-(3,5-Dimethoxy-4-(2,2,2-trifluoroethoxy)benzyl)-7-ethoxyisoquinolin-8-ol hydrochloride]	63.8	inhibition at 5 µM [4]: 21%
CCOc1ccc2c(Cc3cc(OC)c(OCC(C)C)c(OC)c3)cncc2c1N [Compound 31, 4-(4-Isobutoxy-3,5-dimethoxybenzyl)-7-ethoxyisoquinolin-8-amine dihydrochloride]	37	inhibition at 5 µM [4]: 55.4%; IC50 [4]: 1540 nM
CCOc1ccc2c(Cc3cc(OC)c(OCCC(C)C)c(OC)c3)cncc2c1O [Compound 33, 7-Ethoxy-4-(4-(isopentyloxy)-3,5-dimethoxybenzyl)isoquinolin-8-ol hydrochloride]	160	inhibition at 5 µM [4]: 59%; IC50 [4]: 1310 nM
CCCOc1c(OC)cc(C(=O)c2cncc3c(N)c(OCC)ccc23)cc1OC [Compound 66, (8-Amino-7-ethoxyisoquinolin-4-yl)(3,5-dimethoxy-4-propoxyphenyl)methanone hydrochloride]	4.27	IC50 [2, 7]: 2.23 nM; IC50 [2, 8]: 3.58 nM; IC50 [3, 5]: 3.76 nM; IC50 [3, 6]: 5.47 nM
CCOc1ccc2c(C(=O)c3cc(OC)c(OCC(C)C)c(OC)c3)cncc2c1OC(C)=O [Compound 78, 7-Ethoxy-4-(4-isobutoxy-3,5-dimethoxybenzoyl)isoquinolin-8-yl acetate]	7.02	IC50 [2, 8]: 8.07 nM; IC50 [3, 5]: 11.1 nM; IC50 [3, 6]: 19.4 nM
CCOc1ccc2c(Cc3cc(OC)c(OC)c(OC)c3)cncc2c1NC [Compound 92, 7-Ethoxy-N-methyl-4-(3,4,5-trimethoxybenzyl)isoquinolin-8-amine dihydrochloride]	943	
CCOc1ccc2c(Cc3cc(OC)c(OC)c(OC)c3)cncc2c1NCC(=O)OC [Compound 93, Methyl 2-(7-ethoxy-4-(3,4,5-trimethoxybenzyl)isoquinolin-8-ylamino)acetate dihydrochloride]	334	
C=C(c1cc(OC)c(OC)c(OC)c1)c1cncc2c(O)c(OCC)ccc12 [Compound 95, 7-Ethoxy-4-(1-(3,4,5-trimethoxyphenyl)vinyl)isoquinolin-8-ol hydrochloride]	49.7	
CCOc1ccc2c(Cc3cc(OC)c(OC)c([N+](=O)[O-])c3)cncc2c1O [Compound 103, 4-(3,4-Dimethoxy-5-nitrobenzyl)-7-ethoxyisoquinolin-8-ol hydrochloride]	138	
CCOc1ccc2c(C(=O)c3cc(OC)c(OC)c(OC)c3)cncc2c1NS(=O)(=O)NC(=O)OC(C)(C)C [Compound 104, tert-Butyl N-(7-ethoxy-4-(3,4,5-trimethoxybenzoyl)isoquinolin-8-yl)sulfamoylcarbamate]	38.8	
CCOc1ccc2c(Cc3cc(OC)c(OC)c(OC)c3)cncc2c1Cl [Compound 106, 8-Chloro-7-ethoxy-4-(3,4,5-trimethoxybenzyl)isoquinoline hydrochloride]	885	
CCOc1ccc2c(Cc3cc(OC)c(OC)c(OC)c3)cncc2c1N=[N+]=[N-] [Compound 107, 8-Azido-7-ethoxy-4-(3,4,5-trimethoxybenzyl)isoquinoline]	575	
CCOc1ccc2c(C(=O)c3cc(OC)c(OC)c(OC)c3)cncc2c1N=[N+]=[N-] [Compound 108, 8-Azido-7-ethoxy-4-(3,4,5-trimethoxybenzoyl)isoquinoline]	74.8	
CCOc1ccc2c(C(=O)c3cc(OC)c(OC)c(OC)c3)cncc2c1OC(=O)C(C)(C)C [Compound 109, 7-Ethoxy-4-(3,4,5-trimethoxybenzoyl)isoquinolin-8-yl pivalate]	67.9	
CCOc1ccc2c(Cc3cc(OC)c(OC)c(OC)c3Cl)cncc2c1O [Compound 110, 4-(2-Chloro-3,4,5-trimethoxybenzyl)-7-ethoxyisoquinolin-8-ol hydrochloride]	68	
CCOc1ccc2c(C(=O)c3cc(OC)c(OC)c(OC)c3)cncc2c1NC(C)=O [Compound 111, N-(7-Ethoxy-4-(3,4,5-trimethoxybenzoyl)isoquinolin-8-yl)acetamide hydrochloride]	96.8	
CCOc1ccc2c(C(=O)c3cc(OC)c(OC)c(OC)c3)cncc2c1NC(=O)CN [Compound 112, 2-Amino-N-(7-ethoxy-4-(3,4,5-trimethoxybenzoyl)isoquinolin-8-yl)acetamide]	7.9	IC50 [2, 7]: 16.4 nM; IC50 [2, 8]: 31.3 nM; IC50 [3, 5]: 68.5 nM; IC50 [3, 6]: 62.8 nM
CCOc1ccc2c(C(=O)c3cc(OC)c(OC)c(OC)c3)cncc2c1NC(=O)OCC(C)C [Compound 113, Isobutyl (7-ethoxy-4-(3,4,5-trimethoxybenzoyl)isoquinolin-8-yl)carbamate hydrochloride]	231	
CCOc1ccc2c(C(=O)c3cc(OC)c(OC)c(OC)c3)cncc2c1NC(=O)[C@@H](N)Cc1ccccc1 [Compound 114, (S)-2-Amino-N-(7-ethoxy-4-(3,4,5-trimethoxybenzoyl)isoquinolin-8-yl)-3-phenylpropanamide dihydrochloride]	92.6	
CCOc1ccc2c(C(=O)c3cc(Br)c(OC)c(OC)c3)cncc2c1OC(C)=O [Compound 115, 4-(3-Bromo-4,5-dimethoxybenzoyl)-7-ethoxyisoquinolin-8-yl acetate]	20.8	
CCOc1ccc2c(C(=O)c3cc(Br)c(OC)c(OC)c3)cncc2c1O [Compound 116, (3-Bromo-4,5-dimethoxyphenyl)(7-ethoxy-8-hydroxyisoquinolin-4-yl)methanone hydrochloride]	86.9	
O=C(Nc1ccncc1)C(=O)c1cn(Cc2ccc(Cl)cc2)c2ccccc12 [Indibulin, reference compound]	197	
CC(=O)O[C@H]1C(=O)[C@@]2(C)[C@H]([C@H](OC(=O)c3ccccc3)[C@]3(O)C[C@H](OC(=O)[C@H](O)[C@@H](NC(=O)c4ccccc4)c4ccccc4)C(C)=C1C3(C)C)[C@]1(OC(C)=O)CO[C@@H]1C[C@@H]2O [Taxol, reference compound]	6.9	IC50 [2, 7]: 0.79 nM; IC50 [2, 8]: 7.16 nM
